Results as given in patent publication US20060046968A1, “Prodrug substituted benzoxazoles as estrogenic agents” (priority 2004, published 2006).
Values joined by “and” are separate entries in the source; they are usually repeats but may differ in a detail not shown here. Equal values may be shown once.

Key:
[1] = system: morphine-addicted rats; assay: Rat hot flush test procedure (tail skin temperature after naloxone); assay type: in vivo
Source text: The effect of test compounds on hot flushes can be evaluated in a standard pharmacological test procedure that measures the ability of a test compound to blunt the increase in tail skin temperature, which occurs as morphine-addicted rats are acutely withdrawn from the drug using naloxone [Merchenthaler, et al., Maturitas 30: 307-16 (1998)]. It can also be used to detect estrogen receptor antagonist activity by co-dosing test compound with the reference estrogen. The following data were obtained from representative metabolites of compounds of the invention (Table 7).

[2] = system: Sexually immature Sprague-Dawley rats; assay: Rat uterotrophic test procedure (Procedure 1); assay type: in vivo
[3] = system: Sexually immature 129 SvE mice; assay: Mouse uterotrophic test procedure (Procedure 2); assay type: in vivo; conditions: compound 50 mg/kg s.c., days 22-25
[4] = system: Progesterone receptor mRNA; assay: Progesterone receptor mRNA regulation in the preoptic area of the rat brain; assay type: in vivo; conditions: 10 mg/kg
[5] = system: ovulation (number of oocytes ovulated); assay: Ovulation inhibition test procedure; assay type: in vivo; conditions: 50 mg/kg
Source text: The test procedure is used to determine whether test compounds can inhibit or change the timing of ovulation. It can also be used to determine the number of oocytes ovulated [Lundeen, et al., J Steroid Biochem Mol Biol 78: 137-143 (2001)]. The following data were obtained from representative metabolites of compounds from the invention (Table 22).

[6] = system: Female Mongolian gerbils; assay: Transient global ischemia in the Mongolian gerbil: neurogranin mRNA in hippocampus; assay type: in vivo; conditions: gerbil hippocampus after 5 min global ischemia; s.c. daily
Experimental: Transient global ischemia in the Mongolian gerbil. The effect of test compounds on preventing or treating brain injury in response to oxygen deprivation/reperfusion were measured using the following test procedure.
Female Mongolian gerbils (60-80 g; Charles River Laboratories, Kingston, N.Y.) were housed in the Wyeth-Ayerst animal care facility Association for Assessment and Acreditation of Laboratory Animal Care (AAALAC) certified with a 12-hour light, 12-hour dark photoperiod and free access to tap water and a low-estrogen casein diet (Purina®; Richmond, Ind.). After acclimation (3-5 days), gerbils were anesthetized with isoflurane (2-3% mixture with O2), ovariectomized (Day 0). […] On Day 6, gerbils (n=4-5/group) were anesthetized with isoflurane, the common carotid arteries visualized via a mid-line neck incision and both arteries simultaneously occluded for 5 minutes with non-traumatic micro aneurysm clips. […]
The degree of neuronal protection was evaluated by in situ hybridization analysis of neurogranin mRNA. […]
Neurogranin mRNA was selected for these studies because it is highly expressed in the hippocampal neurons including CA1, but absent in glia and other cell types present in this brain region. […] The results from 6 sections (40 μm apart) per animal were averaged and statistically evaluated. […]

[7] = molecular target: T1, human ERβ (Homo sapiens, UniProt Q92731); assay: ER radioligand binding competition, ERβ
T1 construct: Flag (C); made in house; host or cells: E. coli BL21 (DE3), clarified lysate

[8] = molecular target: T2, human ERα (Homo sapiens, UniProt P03372); assay: ER radioligand binding competition, ERα; conditions: competition with [3H]-17β-estradiol; read-out: ER-α IC50
T2 construct: These templates contained amino acids M250-V595 of human ERα; His (N); Flag (C); made in house; host or cells: E. coli BL21 (DE3), clarified lysate
T2 sequence (P03372 250-595): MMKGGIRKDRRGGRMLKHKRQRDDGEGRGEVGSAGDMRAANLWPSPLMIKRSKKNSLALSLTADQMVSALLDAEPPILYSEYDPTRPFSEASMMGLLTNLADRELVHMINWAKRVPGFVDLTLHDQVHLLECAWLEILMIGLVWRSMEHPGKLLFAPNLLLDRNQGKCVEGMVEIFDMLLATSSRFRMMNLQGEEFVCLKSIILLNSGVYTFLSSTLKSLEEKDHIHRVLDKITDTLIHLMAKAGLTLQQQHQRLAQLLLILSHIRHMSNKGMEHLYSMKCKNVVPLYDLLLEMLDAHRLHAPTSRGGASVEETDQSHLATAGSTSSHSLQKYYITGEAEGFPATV

[9] = compound 2 mg/rat + 17α-ethinyl, 17β-estradiol 0.06 μg/rat s.c. (antagonist mode)

T1 sequence (Q92731 214-530): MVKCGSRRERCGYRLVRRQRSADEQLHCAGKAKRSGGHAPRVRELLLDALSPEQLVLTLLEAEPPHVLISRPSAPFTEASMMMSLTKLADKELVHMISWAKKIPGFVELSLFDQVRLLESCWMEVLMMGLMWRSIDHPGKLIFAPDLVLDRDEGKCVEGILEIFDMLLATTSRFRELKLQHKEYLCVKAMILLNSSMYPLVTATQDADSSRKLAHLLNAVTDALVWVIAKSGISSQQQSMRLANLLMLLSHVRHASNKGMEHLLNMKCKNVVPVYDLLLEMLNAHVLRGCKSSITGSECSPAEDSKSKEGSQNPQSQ

Compound	mean uterine weight ± SEM [3]	mean uterine weight ± SEM [2, 9]	Progesterone receptor mRNA (mean ± stdev) [4]	Temperature change 15 minutes after naloxone injection (mean ± SEM) ([1]; 15 mg/kg)	other results
C#C[C@]1(O)CC[C@H]2[C@@H]3CCc4cc(O)ccc4[C@H]3CC[C@@]21C [17α-ethinyl, 17β-estradiol, 17α-ethinyl-17β-estradiol, reference compound]	–	–	–	–	Temperature change 15 minutes after naloxone injection (mean ± SEM) ([1]; 0.3 mg/kg): 2.12 ± 1.14; mean uterine weight ± SEM ([2]; reference estrogen alone, 0.06 μg/rat s.c., days 19-21): 104.7 ± 5.4 mg and 85.5 ± 3.1 mg
Oc1ccc(-c2nc3cc(O)ccc3o2)cc1 [Example 12, 2-(4-HYDROXYPHENYL)-1,3-BENZOXAZOL-5-OL]	13.7 ± 0.82 mg	60.2 ± 4.0 mg	256.2 ± 42.3 arbitrary units	–	–
Oc1ccc(-c2nc3cc(O)cc(Br)c3o2)cc1 [Example 20, 7-BROMO-2-(4-HYDROXYPHENYL)-1,3-BENZOXAZOL-5-OL]	–	95.9 ± 5.5 mg	–	5.28 ± 0.71	Number of oocytes (mean ± SEM) [5]: 14.13 ± 0.79
N#Cc1cc(O)cc2nc(-c3ccc(O)cc3)oc12 [Example 41, 5-HYDROXY-2-(4-HYDROXYPHENYL)-1,3-BENZOXAZOL-7-CARBONITRILE]	–	76.6 ± 3.0 mg	–	5.25 ± 0.72	Neurogranin mRNA (mean ± stdev) [6]: 43.0 ± 21.8 arbitrary units
C=C(F)c1cc(O)cc2nc(-c3ccc(O)c(F)c3)oc12 [Example 64, 2-(3-FLUORO-4-HYDROXYPHENYL)-7-(1-FLUOROVI NYL)-1,3-BENZOXAZOL-5-OL]	9.8 ± 0.7 mg	–	431.3 ± 65.6 arbitrary units	–	IC50 [7]: 3 nM; IC50 [8]: 376 nM
